From PubChem BioAssay AID248 (DTP/NCI, 2004)
Values joined by “and” are separate entries in the source; they are usually repeats but may differ in a detail not shown here. Identical values can stand only once. Inconclusive results and toxic doses are left out. Rule as the data show it: active = T/C of 150% or more; inactive = T/C below 125%.

Test system: L1210 leukemia ip in BDF1 mice, survival T/C
Assay: NCI In Vivo Anticancer Drug Screen. Data for tumor model L1210 Leukemia (intraperitoneal) in B6D2F1 (BDF1) mice
Settings: endpoint: mean survival time, higher = longer survival
Outline: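 Transplantable tumor model; survival measured in treated vs vehicle control mice. Value = treated/control.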

[1] = dose: 50.0 mg/kg/injection, schedule: Q01DX001 (ip), vehicle: saline
[2] = dose: 100.0 mg/kg/injection, schedule: Q01DX001 (ip), vehicle: saline
[3] = dose: 200.0 mg/kg/injection, schedule: Q01DX001 (ip), vehicle: saline
[4] = dose: 400.0 mg/kg/injection, schedule: Q01DX001 (ip), vehicle: saline
[5] = dose: 100.0 mg/kg/injection, schedule: Q04DX002 (ip), vehicle: Klucel (hydroxypropylcellulose) (HPC)
[6] = dose: 100.0 mg/kg/injection, schedule: Q01DX009 (ip), vehicle: saline
[7] = dose: 100.0 mg/kg/injection, schedule: Q04DX003 (ip), vehicle: alcohol
[8] = dose: 200.0 mg/kg/injection, schedule: Q04DX003 (ip), vehicle: alcohol
[9] = dose: 100.0 mg/kg/injection, schedule: Q01DX009 (ip), vehicle: saline with Tween-80
[10] = dose: 200.0 mg/kg/injection, schedule: Q01DX009 (ip), vehicle: saline with Tween-80
[11] = dose: 400.0 mg/kg/injection, schedule: Q01DX009 (ip), vehicle: saline with Tween-80
[12] = dose: 100.0 mg/kg/injection, schedule: Q04DX003 (ip), vehicle: saline
[13] = dose: 200.0 mg/kg/injection, schedule: Q04DX003 (ip), vehicle: saline

Measured: T/C

CCOc1nc(OCC)c2[nH]c(C(=O)O)c(Br)c2n1
inactive: [1] 107 % of control | [2] 100 % of control | [3] 105 % of control | [4] 107 % of control

CC1(C(=O)O)CCCC1C(CCC(=O)O)C(=O)O (stereo not drawn)
inactive: [2] 97 % of control | [3] 95 % of control | [4] 92 % of control

c1ccc(C2=NC2c2ccccc2)cc1 (stereo not drawn)
inactive: dose: 25.0 mg/kg/injection, schedule: Q01DX001 (ip), vehicle: Klucel (hydroxypropylcellulose) (HPC) 97 % of control | dose: 50.0 mg/kg/injection, schedule: Q01DX001 (ip), vehicle: Klucel (hydroxypropylcellulose) (HPC) 96 % of control | dose: 100.0 mg/kg/injection, schedule: Q01DX001 (ip), vehicle: Klucel (hydroxypropylcellulose) (HPC) 105 % of control

CCCCCCCCCCCCCCCCCCNC(=O)NCCN(C)c1ccccc1
inactive: dose: 100.0 mg/kg/injection, schedule: Q01DX009 (ip), vehicle: carboxymethylcellulose (CMC) 87 % of control and 91 % of control | [5] 108 % of control | dose: 100.0 mg/kg/injection, schedule: Q04DX002 (ip), vehicle: carboxymethylcellulose (CMC) 95 % of control and 97 % of control | dose: 100.0 mg/kg/injection, schedule: Q04DX003 (ip), vehicle: carboxymethylcellulose (CMC) 95 % of control | dose: 200.0 mg/kg/injection, schedule: Q01DX009 (ip), vehicle: carboxymethylcellulose (CMC) 90 % of control | dose: 200.0 mg/kg/injection, schedule: Q04DX002 (ip), vehicle: Klucel (hydroxypropylcellulose) (HPC) 112 % of control | dose: 200.0 mg/kg/injection, schedule: Q04DX002 (ip), vehicle: carboxymethylcellulose (CMC) 93 % of control and 95 % of control | dose: 200.0 mg/kg/injection, schedule: Q04DX003 (ip), vehicle: carboxymethylcellulose (CMC) 104 % of control | dose: 400.0 mg/kg/injection, schedule: Q04DX002 (ip), vehicle: Klucel (hydroxypropylcellulose) (HPC) 102 % of control | dose: 400.0 mg/kg/injection, schedule: Q04DX002 (ip), vehicle: carboxymethylcellulose (CMC) 95 % of control and 90 % of control | dose: 400.0 mg/kg/injection, schedule: Q04DX003 (ip), vehicle: carboxymethylcellulose (CMC) 86 % of control

COc1ccccc1CN1CCCN(Cc2ccccc2OC)C1c1ccccc1O
inactive: [1] 101 % of control | [2] 103 % of control | [3] 101 % of control | [4] 97 % of control

C/C=C/C=C/COC(=O)CCCCCC
inactive: dose: 100.0 mg/kg/injection, schedule: Q04DX002 (ip), vehicle: saline 98 % of control and 108 % of control | dose: 200.0 mg/kg/injection, schedule: Q04DX002 (ip), vehicle: saline 108 % of control and 119 % of control | dose: 400.0 mg/kg/injection, schedule: Q04DX002 (ip), vehicle: saline 107 % of control | dose: 600.0 mg/kg/injection, schedule: Q04DX002 (ip), vehicle: saline 98 % of control

c1ccc2c(c1)C1CC(N3CCCCC3)C2c2ccccc21 (stereo not drawn)
inactive: [6] 102 % of control | [7] 95 % of control | [8] 95 % of control | dose: 400.0 mg/kg/injection, schedule: Q01DX009 (ip), vehicle: saline 100 % of control | dose: 400.0 mg/kg/injection, schedule: Q04DX003 (ip), vehicle: alcohol 93 % of control

COC(=O)c1cn[nH]c1C(=O)OC
inactive: [2] 100 % of control | [3] 100 % of control | [4] 96 % of control

Nc1cccc(CCCCc2ccc(S(=O)(=O)F)cc2)c1
inactive: [2] 101 % of control | [3] 95 % of control | [4] 98 % of control

Cc1c(-c2nc(SCC(=O)NN)n[nH]2)no[n+]1[O-]
inactive: dose: 25.0 mg/kg/injection, schedule: Q04DX002 (ip), vehicle: Klucel (hydroxypropylcellulose) (HPC) 102 % of control | dose: 50.0 mg/kg/injection, schedule: Q04DX002 (ip), vehicle: Klucel (hydroxypropylcellulose) (HPC) 91 % of control | [5] 98 % of control

CCOC(=O)c1ccc(OC(=O)Nc2ccccc2)cc1
inactive: [9] 98 % of control | dose: 100.0 mg/kg/injection, schedule: Q04DX003 (ip), vehicle: saline with Tween-80 98 % of control | [10] 96 % of control | dose: 200.0 mg/kg/injection, schedule: Q04DX003 (ip), vehicle: saline with Tween-80 95 % of control | [11] 90 % of control | dose: 400.0 mg/kg/injection, schedule: Q04DX003 (ip), vehicle: saline with Tween-80 91 % of control

COc1ccc(C(=O)CCS/C(CCO)=C(\C)N(C=O)Cc2cnc(C)nc2N)cc1
inactive: [12] 101 % of control | [13] 101 % of control | dose: 400.0 mg/kg/injection, schedule: Q04DX003 (ip), vehicle: saline 101 % of control

c1ccc(CC(c2ccccc2)(c2ccccc2)c2ccccc2)cc1
inactive: dose: 25.6 mg/kg/injection, schedule: Q04DX002 (ip), vehicle: saline with Tween-80 89 % of control | dose: 64.0 mg/kg/injection, schedule: Q04DX002 (ip), vehicle: saline with Tween-80 93 % of control | dose: 160.0 mg/kg/injection, schedule: Q04DX002 (ip), vehicle: saline with Tween-80 93 % of control | dose: 400.0 mg/kg/injection, schedule: Q04DX002 (ip), vehicle: saline with Tween-80 112 % of control

Cc1ccccc1NC(=O)C1CCC(C)(C(=O)O)C1(C)C (stereo not drawn)
inactive: [9] 102 % of control | [10] 102 % of control | [11] 95 % of control

Cc1ccc(S(=O)(=O)N/N=C2\CCCC3CC23C)cc1 (stereo not drawn)
inactive: dose: 75.0 mg/kg/injection, schedule: Q04DX002 (ip), vehicle: Klucel (hydroxypropylcellulose) (HPC) 93 % of control | dose: 150.0 mg/kg/injection, schedule: Q04DX002 (ip), vehicle: Klucel (hydroxypropylcellulose) (HPC) 93 % of control | dose: 300.0 mg/kg/injection, schedule: Q04DX002 (ip), vehicle: Klucel (hydroxypropylcellulose) (HPC) 104 % of control

NC(=O)CSSCC(N)=O
inactive: [12] 98 % of control | [13] 93 % of control

COc1cc2c(cc1OC)C(CC1=CCN3CCC4=C(C=CCC4)C3C1)NCC2 (stereo not drawn)
inactive: dose: 4.0 mg/kg/injection, schedule: Q04DX003 (ip), vehicle: water 106 % of control | dose: 8.0 mg/kg/injection, schedule: Q04DX003 (ip), vehicle: water 101 % of control | dose: 16.0 mg/kg/injection, schedule: Q04DX003 (ip), vehicle: water 102 % of control | dose: 32.0 mg/kg/injection, schedule: Q04DX003 (ip), vehicle: water 101 % of control | dose: 64.0 mg/kg/injection, schedule: Q04DX003 (ip), vehicle: water 112 % of control

COc1ccc2ccccc2c1-c1c([N+](=O)[O-])ccc2ccccc12
inactive: dose: 12.5 mg/kg/injection, schedule: Q04DX002 (ip), vehicle: saline with Tween-80 97 % of control | dose: 25.0 mg/kg/injection, schedule: Q04DX002 (ip), vehicle: saline with Tween-80 90 % of control | dose: 50.0 mg/kg/injection, schedule: Q04DX002 (ip), vehicle: saline with Tween-80 87 % of control | dose: 100.0 mg/kg/injection, schedule: Q04DX002 (ip), vehicle: saline with Tween-80 93 % of control

C=CCCN(c1ccc(C(=O)OCC)cc1)S(=O)(=O)c1ccc(C)cc1
inactive: dose: 50.0 mg/kg/injection, schedule: Q01DX001 (ip), vehicle: carboxymethylcellulose (CMC) 102 % of control | dose: 100.0 mg/kg/injection, schedule: Q01DX001 (ip), vehicle: carboxymethylcellulose (CMC) 100 % of control | dose: 200.0 mg/kg/injection, schedule: Q01DX001 (ip), vehicle: carboxymethylcellulose (CMC) 107 % of control | dose: 400.0 mg/kg/injection, schedule: Q01DX001 (ip), vehicle: carboxymethylcellulose (CMC) 96 % of control

CC(=O)N(C(C)=O)C1=C(c2ccccc2)C(=O)c2ccccc21
inactive: dose: 100.0 mg/kg/injection, schedule: Q01DX009 (ip), vehicle: Klucel (hydroxypropylcellulose) (HPC) 98 % of control | dose: 100.0 mg/kg/injection, schedule: Q04DX003 (ip), vehicle: Klucel (hydroxypropylcellulose) (HPC) 96 % of control | dose: 200.0 mg/kg/injection, schedule: Q01DX009 (ip), vehicle: Klucel (hydroxypropylcellulose) (HPC) 97 % of control | dose: 200.0 mg/kg/injection, schedule: Q04DX003 (ip), vehicle: Klucel (hydroxypropylcellulose) (HPC) 105 % of control | dose: 400.0 mg/kg/injection, schedule: Q01DX009 (ip), vehicle: Klucel (hydroxypropylcellulose) (HPC) 94 % of control | dose: 400.0 mg/kg/injection, schedule: Q04DX003 (ip), vehicle: Klucel (hydroxypropylcellulose) (HPC) 107 % of control

N=C(N)Sc1cc(O)ccc1O
inactive: dose: 50.0 mg/kg/injection, schedule: Q01DX009 (ip), vehicle: saline 94 % of control | [6] 93 % of control | [7] 102 % of control | dose: 200.0 mg/kg/injection, schedule: Q01DX009 (ip), vehicle: saline 96 % of control | [8] 104 % of control
